Measured values from patent US7504489B2, “Inhibitors of ADP-ribosyl transferases, cyclases, and hydrolases, and uses thereof” (Albert Einstein College of Medicine of Yeshiva University, priority 2001, dated 2009).
Values joined by “and” are separate entries in the source; they are usually repeats but may differ in a detail not shown here. Equal values may be shown once.

Experiments:
CD38 [1] = molecular target: T1, CD38 (Homo sapiens, UniProt P28907); conditions: 37° C.; cited from earlier work
T1 sequence (P28907 1-300): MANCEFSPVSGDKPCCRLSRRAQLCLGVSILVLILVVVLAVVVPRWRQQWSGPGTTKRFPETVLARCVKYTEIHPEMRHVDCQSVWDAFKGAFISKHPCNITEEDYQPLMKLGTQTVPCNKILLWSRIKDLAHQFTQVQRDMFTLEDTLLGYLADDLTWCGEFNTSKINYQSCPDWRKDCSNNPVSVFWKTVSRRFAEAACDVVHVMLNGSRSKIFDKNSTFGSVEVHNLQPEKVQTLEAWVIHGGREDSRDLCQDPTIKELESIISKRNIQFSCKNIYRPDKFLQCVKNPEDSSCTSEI

CD38 [2] = molecular target: T2, CD38 (Homo sapiens, UniProt P28907); assay: CD38 activity and inhibition measurements (time-dependent inactivation, NGD+ to cGDPR, absorbance at 295 nm); assay type: biochemical; conditions: for residual enzymatic activity, % of the control: 10 min after treatment of enzyme (500 nM) with excess inhibitor (10 μM), 10 min, 10 µM
T2 sequence (P28907 45-300): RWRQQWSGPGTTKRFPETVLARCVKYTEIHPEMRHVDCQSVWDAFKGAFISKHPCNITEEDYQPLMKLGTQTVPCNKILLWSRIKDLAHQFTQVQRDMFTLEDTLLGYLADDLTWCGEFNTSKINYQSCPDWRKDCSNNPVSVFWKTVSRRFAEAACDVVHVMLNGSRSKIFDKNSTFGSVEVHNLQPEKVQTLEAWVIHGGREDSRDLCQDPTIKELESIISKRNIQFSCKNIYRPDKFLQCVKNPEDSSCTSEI
Procedure: […] Aliquots of the reaction were assayed by placing 5 μl of the reaction mixture into 1 ml of 50 mM HEPES (pH 7.5) containing 100 μM NGD^+, at 30, 60, 90, 120, 180, or 300 sec. The conversion of NGD^+ to cGDPR was monitored by determining absorbance at 295 nm. A reaction mixture lacking inhibitor was used as a control. Activity was determined as a function of time, and fitted to the equation A(t)=[…]^-kt, where A0 is activity at time zero (control), t is time in seconds, and k is the observed pseudo-first-order rate constant. Human CD38 (200 nM) was incubated with β-1'-pyridyl-2'-deoxyribose (25 mM) in a volume of 100 μl of 50 mM Tricine (pH 7.5). Aliquots of the reaction (5 μl) were assayed by placing into 1 ml of 50 mM HEPES (pH 7.5) containing 100 μM NGD^+ at 750, 1500, 2250, 3000, 4000, 8000, and 14400 s. The conversion of NGD^+ to cGDPR was monitored by absorbance at 295 nm. A reaction mixture lacking inhibitor was used as a control. Activity was determined as a function of time, and fitted to the equation A(t)=C+[…]^-kt, where A0 is activity at time zero (control), t is time in s, k is the observed pseudo-first-order rate constant, and C represents uninhibited activity at equilibrium.

CD38 [3] = molecular target: T2, CD38; assay: Determination of Ki and kchem by competitive method (NGD+ substrate, absorbance at 295 nm); assay type: biochemical
Procedure: CD38 was used to start reactions containing 1-ml solutions of 50 mM potassium phosphate, 100 μM NGD, and 50, 25, 12.5, 6.25, and 0 μM βNdR. Reactions were initiated with 2 μl of 7 μM CD38, and reaction progress was monitored by measurement of absorbance at 295 nm. The initial slopes were used to determine the Ki value. The time course of absorbance for each sample was fitted to the equation A(t)=vt+(b−v)(1−exp(−kt))/k+A0, where k is the observed rate constant, b is the initial rate, v is the final rate, and A0 is the initial absorbance. The rate constant kchem (FIG. 3) was determined as reported (19).
This mechanism of inhibition was tested by treatment of CD38 with different concentrations of inhibitor in the presence of 50 Km of substrate to establish values for Ki and kchem. In the presence of 100 μM NGD^+, reaction mixtures containing 0 to 50 μM βNdR were initiated by addition of enzyme (FIG. 8).

CD38 [4] = molecular target: T2, CD38; assay: Radiochemical measurement of reaction rates (covalent labelling of CD38 by [2′-3H] inhibitor, gel filtration); assay type: binding; conditions: for kon (radioactivity, radiolabeled inhibitor bound versus time): [2′-3H]βNdR 9 μM, CD38 1.2 μM, gel filtration
Procedure: [2′-^3H]β-1′-nicotinamide-2′-deoxyribose ([2′-^3H]βNdR) was used to measure the covalent interaction of inhibitor with CD38 as follows: 9 μM inhibitor with specific activity of 1233 cpm/nmol was incubated with 1.2 μM CD38 in a volume of 1 ml of 50 mM potassium phosphate (pH 7.5). The reactions were started by enzyme addition, and quenched by freezing in a dry ice/acetone bath after 30, 60, 90, 120, 250, 500, and 1000 sec. Samples were placed on 1 ml gel filtration columns (0° C.) that were used to separate protein from free inhibitor. Columns were cooled on ice, and eluted with cold (0° C.) 10 mM potassium phosphate (pH 7.5) as eluant. Fractions (1 ml) were combined with 9 ml of scintillation fluid, and counted for radioactivity. A sample lacking enzyme, but having the same incubations, was performed as a blank control. A sample using the α-[2′-^3H]nicotinamide-2′-deoxyribose of equal concentration and specific activity, and having the same incubations, was performed as a second control. The observed cpm in the protein peak (fractions 3+4) was fitted to the equation A(t)=A0(1−exp(−kt))+B, where A(t) is the cpm in protein at time t, A0 is the cpm at reaction completion, k is the observed pseudo-first-order rate constant, B is the activity of the blank, and t is the time in seconds.
The covalent interaction of [2′-^3H]β-1′-pyridyl-2′-deoxyribose with CD38 was measured as follows: 25 mM inhibitor with specific activity of 1233 cpm/nmol was incubated with 25.2 μM CD38 in a volume of 50 μl of 50 mM Tricine (pH 7.5). The reactions were started by enzyme addition, and quenched by freezing in a dry ice/acetone bath after 2 h, 7200 s. Samples were placed on (0° C.) 1-ml gel filtration columns (P-10) that were used to separate protein from free inhibitor. Columns were cooled on ice, and eluted with cold (0° C.) 10 mM potassium phosphate (pH 7.5) as eluant. Fractions (1 ml) were combined with 9 ml of scintillation fluid, and counted for radioactivity. A sample lacking enzyme, but undergoing the same incubations, was performed as a blank control. A sample using the α-[2′-^3H]nicotinamide-2′-deoxyribose of equal concentration and specific activity, and the same incubations, was used as a second control. The observed cpm in the protein peak (fractions 3+4) were fitted to the equation A(t)=A0(1−exp(−kt))+B, where A(t) is the cpm in protein at time t, A0 is the cpm at reaction completion, k is the observed pseudo-first-order rate constant, B is the activity of the blank, and t is the time in s.

CD38 [5] = molecular target: T2, CD38; assay: Off-rate measurement (recovery of CD38 catalytic activity after inactivation); assay type: biochemical
Procedure: Recovery of CD38 catalytic activity after inactivation with β-1′-nicotinamide-2′-deoxyribose was measured in reaction mixtures containing 500 nM CD38, 50 mM inhibitor, and 15 μM deoxyriboside. After timed intervals, 5 μl of the reaction mixture were added to a 1-ml reaction of 50 mM HEPES (pH 7.5) containing 300 μM NGD^+. A control was also prepared without the inhibitor. Production of cGDPR was determined by monitoring absorbance at 295 nm. The absorbance was fitted to the equation A(t)=vt+(b−v)(1−exp(−kofft))/koff+A0 (19), where koff is the observed rate constant, b is the initial rate, v is the final rate, and A0 is the initial absorbance. Recovery of CD38 catalytic activity after inhibition by βNdR was measured by adding inactivated CD38 to solutions of NGD^+, and monitoring absorbance change at 295 nm for periods of 3-4 h. The recovery process was slow: full catalytic activity was not restored over this time period. However, the measured rate constant for recovery could be measured by regressive fit of the data to the activity recovery equation, A(t)=vt+(b−v)(1−exp(−kofft))/koff+A0, where koff is the observed rate constant, b is the initial rate, v is the final rate, and A0 is the initial absorbance. […] The proposed mechanism of recovery operates through the hydrolytic path (FIG. 4).

CD38 [6] = molecular target: T2, CD38; assay: Determination of Ki and kchem by competitive method (NGD+ substrate, absorbance at 295 nm); assay type: biochemical; remark: listed apart in the source
[7] = listed as β-1′-nicotinamide-2′-deoxyribose

Compound: NC(=O)c1ccc[n+]([C@@H]2O[C@H](COP(=O)(O)O)[C@@H](O)[C@H]2O)c1 [NMN^+]
- kcat for hydrolysis (hydrolysis of the covalent intermediate) (CD38 [1]): 512 s⁻¹

Compound: 5′-phospho-1′-β-pyridyl-2′-deoxyribose [5′-phospho-1′-pyridyl-deoxyribose]
- effect of extended incubation on CD38 (CD38 [2]; 200 μM inhibitor): inhibited the enzyme
- minimum value for kchem (CD38 [2]; 200 μM inhibitor, extended incubations, activity versus time): ≥ 0.00022 s⁻¹
- Ki (CD38 [3]; 5′-phospho derivative, similar studies, read-out: Ki): > 200 µM
- covalent attachment of the sugar moiety to the enzyme (CD38 [4]; [2′-3H] labelled inhibitor, gel-filtration): confirmed covalent attachment

Compound: NC(=O)c1ccc[n+]([C@H]2C[C@H](O)[C@@H](CO)O2)c1 [βNdR, β-1′-nicotinamide-2′-deoxyribose]
- residual enzymatic activity, % of the control (CD38 [2]): less than 5%
- residual enzymatic activity, % of the control (CD38 [2]; [7]): < 5%
- Ki (CD38 [2]; kon from activity decay, read-out: Kieff = koff/kon (Activity, koff)): 0.0051 µM
- Ki (CD38 [2]; read-out: Kieff = koff/kon (kon from activity decay)): 0.005 µM
- kchem, rate constant for chemical reaction (competitive onset) (CD38 [3]; 100 μM NGD+, 0 to 50 μM inhibitor, listed as β-1′-nicotinamide-2′-deoxyribose): 0.0126 s⁻¹
- Ki (CD38 [3]; 100 μM NGD+, 0 to 50 μM inhibitor, listed as β-1′-nicotinamide-2′-deoxyribose, read-out: Ki (competitive, initial slopes)): 2.5 µM
- Ki (CD38 [3]; 100 μM NGD+, 0 to 50 μM inhibitor, read-out: Ki (competitive, initial slopes)): 1 µM
- Ki (CD38 [3]; average of the three Kieff values, read-out: Kieff (Average of values)): 0.0029 µM
- Ki (CD38 [3]; listed as β-D-1′-nicotinamide-2′-deoxyribofuranoside, read-out: Kieff, effective inhibition constant (average)): 0.0029 µM
- Ki (CD38 [3]; read-out: Kieff = Kikoff/kchem): 0.0004 µM
- Ki (CD38 [3]; read-out: Kieff, effective inhibition constant (average)): 0.0029 µM and 0.002 µM
- koff, rate constant for recovery (activity recovery, hydrolysis) (CD38 [5]; inactivated CD38 added to NGD+, 3-4 h, no nicotinamide): 5e-06 s⁻¹
- rate of CD38-deoxyribose hydrolysis relative to CD38 ribose 5-phosphate (CD38 [5]; ratio of hydrolysis rates of covalent intermediates): 10^−8
- kon (radioactivity, radiolabeled inhibitor bound versus time) (CD38 [4]): 1540 M⁻¹ s⁻¹
- kon (radioactivity, radiolabeled inhibitor bound versus time) (CD38 [4]; [7]): 1500 M⁻¹ s⁻¹
- Ki (CD38 [4]; kon from radioactivity, read-out: Kieff = koff/kon (Radioactivity, koff)): 0.0033 µM
- Ki (CD38 [4]; read-out: Kieff = koff/kon (kon from radioactivity)): 0.0032 µM

Compound: NC(=O)c1ccc[n+]([C@@H]2O[C@H](COP(=O)([O-])OP(=O)(O)OC[C@H]3O[C@@H](n4cnc5c(=O)[nH]c(N)nc54)[C@H](O)[C@@H]3O)[C@@H](O)[C@H]2O)c1 [NGD^+, Nicotinamide guanine dinucleotide, reference compound]
- Km (CD38 [6]; CD38 substrate): 2 µM

Compound: OC[C@H]1O[C@@H]([n+]2ccccc2)C[C@@H]1O [β-pyridyl-deoxyribose, β-1′-pyridyl-2′-deoxyribose]
- extent of inhibition achieved (CD38 [2]; 25 mM inhibitor, limited by long onset times and inhibitor decomposition): 60-80%
- rate of covalent inactivation, equivalent to kchem (CD38 [2]; saturating concentration (25 mM), absence of NGD+): 0.00017 s⁻¹
- Ki (CD38 [3]; calculated value, read-out: Kieff (koffKi/kchem)): 323 µM
- Kieff relative to Kieff for βNdR (CD38 [3]; times larger): 10^5 times
- Ki (CD38 [6]; 50 μM to 50 mM inhibitor, 5 μM (3 Km) NGD+, read-out: Ki for CD38 inhibition): 11000 µM
